From US20140228372A1 (priority 2011, published 2014)

- melting point: 249 to 251 °C
Structure (SMILES): Cc1cc(C(F)(F)F)nn1CC(=O)N1CCC(c2csc(NC(=O)Cc3c(F)cccc3Cl)n2)CC1 [I.as.001, 2-(2-chloro-6-fluoro-phenyl)-N-(4-{1-[2-(5-methyl-3-trifluoromethyl-pyrazol-1-yl)-acetyl]-piperidin-4-yl}-thiazol-2-yl)-acetamide]
